Results reported in paper PMC12675575, “A BRET biosensor for measuring uncompetitive engagement of PRMT5 complexes in cells” (Nature Communications, 2025).
“And” between values parts separate entries of the source, which are not always exact repeats. Identical values can stand only once.

How the values were obtained:
MAT2A [1] = test: BRET probe sensitivity to MAT2A inhibition (Compound A) in live HEK293 cells expressing NLuc-PRMT5; format: cell-based; conditions: for normalized BRET signal (Figure S3D) / Normalized BRET probe signal: Log([Compound A]); for normalized BRET signal (Figure S3D): replicates; for Normalized BRET probe signal: 37 °C
Experimental: To measure BRET probe sensitivity to both MAT2A inhibition and exogenous MTA in live cells, HEK293 cells were pre-treated with 30 nM CBH-002 and incubated at 37 °C and 5% CO2 for 2 h. For MAT2A inhibition, a 20 µM, 3-fold, 11 pt titration series of Compound A (Selleckchem) was added to wells. Cells were incubated either at 37 °C (Fig. 3D) or room temperature (Fig. S3D). Data were normalized using Eq. (2), where BRETMIN = instrument background (no CBH-002), and BRETMAX = 2 h vehicle treatment, and fit curves were generated using Eq. (1). For MTA sensitivity cells were treated with a 1 mM, 11 pt, 2-fold series of MTA (Sigma) and cells were incubated at room temperature for 2 h, reading in 15 min intervals. Data were normalized using Eq. (2), where BRETMIN = instrument background (no CBH-002), and BRETMAX = 2 h + vehicle treatment. Data were fit with Eq. (1).

MAT2A [2] = test: as above; format: cell-based; conditions: Log([Compound A]), 37 °C
PRMT5:MEP50 = tested on: PRMT5:MEP50; set-up: method as in ref 1 (a number printed in a supplementary file, which may have a reference list of its own: not looked up in the article's list); conditions: HTRF, H4R3 monomethylation; read-out: Biochemical (nM), IC50; cited from earlier work
[3] = target: NLuc-PRMT5 co-expressed with WDR77 (Homo sapiens, UniProt O14744); test: Compound EC50 titrations against MTA, NanoBRET in HEK293 (NLuc-PRMT5 + WDR77), with global Gaddum/Schild or Morrison fits
Experimental: MTA (Sigma) was prepared at 100× in 100% DMSO and diluted to 10× in Opti-MEM. Inhibitors were run as 11 pt, 3-fold dilution curves and MTA as a seven point, 3-fold dilution curve starting at 100 μM. Cells were incubated for 2 h at 37 °C and 5% CO2 prior to BRET measurements. Data was normalized using Eq. (2) where BRETMIN = saturating compound + maximum [MTA], and BRETMAX = BRET signal under vehicle conditions. Curves were fit using Eq. (3), and EC50 values were plotted against MTA concentration to determine the linear range of MTA detection.

Z-138 cells = tested on: Z-138 cells; set-up: method as in ref 2,3 (a number printed in a supplementary file, which may have a reference list of its own: not looked up in the article's list); conditions: read-out: Proliferation (nM), IC50; cited from earlier work

Chain of NLuc-PRMT5 co-expressed with WDR77 (O14744 whole entry): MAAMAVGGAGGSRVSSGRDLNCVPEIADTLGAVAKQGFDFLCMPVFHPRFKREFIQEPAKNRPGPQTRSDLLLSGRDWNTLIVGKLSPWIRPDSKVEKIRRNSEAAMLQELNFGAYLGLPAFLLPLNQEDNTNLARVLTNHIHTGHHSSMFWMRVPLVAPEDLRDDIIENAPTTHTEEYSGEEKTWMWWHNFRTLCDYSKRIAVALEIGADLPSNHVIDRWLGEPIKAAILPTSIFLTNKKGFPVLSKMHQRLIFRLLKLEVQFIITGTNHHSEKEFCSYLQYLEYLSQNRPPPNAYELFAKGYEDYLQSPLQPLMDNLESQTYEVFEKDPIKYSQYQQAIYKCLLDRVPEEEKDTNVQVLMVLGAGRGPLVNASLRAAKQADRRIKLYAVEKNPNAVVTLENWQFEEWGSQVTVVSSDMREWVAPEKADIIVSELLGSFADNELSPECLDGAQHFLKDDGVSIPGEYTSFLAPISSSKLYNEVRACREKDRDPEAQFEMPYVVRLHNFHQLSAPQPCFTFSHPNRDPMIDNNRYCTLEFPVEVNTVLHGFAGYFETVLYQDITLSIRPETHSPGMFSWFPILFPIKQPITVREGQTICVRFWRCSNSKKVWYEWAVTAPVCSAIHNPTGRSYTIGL
Chain of NLuc-PRMT5 co-expressed with WDR77 (Q9BQA1 whole entry partner): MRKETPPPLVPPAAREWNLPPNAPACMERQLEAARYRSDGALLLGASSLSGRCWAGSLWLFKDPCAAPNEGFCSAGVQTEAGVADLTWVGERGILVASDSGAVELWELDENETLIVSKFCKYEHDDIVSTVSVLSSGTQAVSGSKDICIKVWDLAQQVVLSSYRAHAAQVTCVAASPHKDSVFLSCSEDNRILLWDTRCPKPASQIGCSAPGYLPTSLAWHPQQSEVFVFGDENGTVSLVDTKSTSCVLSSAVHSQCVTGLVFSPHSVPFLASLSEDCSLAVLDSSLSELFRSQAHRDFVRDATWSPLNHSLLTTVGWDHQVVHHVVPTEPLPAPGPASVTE

Compound: Nc1nc(=O)n(-c2ccccc2Cl)c2nc(C(F)(F)F)ccc12 [Compound A]
- normalized BRET signal (Figure S3D) (MAT2A [1]; uM 0.35, Time 0 min): 102.31 and 101.27 and 102.49
- normalized BRET signal (Figure S3D) (MAT2A [1]; uM 0.35, Time 15 min): 102.22 and 100.75 and 100.92
- normalized BRET signal (Figure S3D) (MAT2A [1]; uM 0.35, Time 30 min): 98.94 and 102.77 and 99.88
- normalized BRET signal (Figure S3D) (MAT2A [1]; uM 0.35, Time 45 min): 101.50 and 99.61 and 97.49
- normalized BRET signal (Figure S3D) (MAT2A [1]; uM 0.35, Time 60 min): 100.91 and 99.04 and 97.98
- normalized BRET signal (Figure S3D) (MAT2A [1]; uM 0.35, Time 75 min): 100.10 and 98.57 and 96.49
- normalized BRET signal (Figure S3D) (MAT2A [1]; uM 0.35, Time 90 min): 99.02 and 98.37 and 97.43
- normalized BRET signal (Figure S3D) (MAT2A [1]; uM 0.35, Time 120 min): 96.41 and 97.99 and 95.04
- normalized BRET signal (Figure S3D) (MAT2A [1]; uM 0.82, Time 0 min): 101.24 and 100.09 and 103.66
- normalized BRET signal (Figure S3D) (MAT2A [1]; uM 0.82, Time 15 min): 101.29 and 99.47 and 102.07
- normalized BRET signal (Figure S3D) (MAT2A [1]; uM 0.82, Time 30 min): 99.28 (2×) and 100.85
- normalized BRET signal (Figure S3D) (MAT2A [1]; uM 0.82, Time 45 min): 99.67 and 98.96 and 100.10
- normalized BRET signal (Figure S3D) (MAT2A [1]; uM 0.82, Time 60 min): 100.24 and 98.62 and 99.55
- normalized BRET signal (Figure S3D) (MAT2A [1]; uM 0.82, Time 75 min): 100.92 and 98.42 and 98.44
- normalized BRET signal (Figure S3D) (MAT2A [1]; uM 0.82, Time 90 min): 100.92 and 98.07 and 97.73
- normalized BRET signal (Figure S3D) (MAT2A [1]; uM 0.82, Time 120 min): 98.05 and 98.30 and 97.43
- Normalized BRET probe signal (MAT2A [1]; uM 0.82, Time (h) 2): 80.32 and 82.63 and 81.99
- Normalized BRET probe signal (MAT2A [1]; uM 0.82, Time (h) 4): 62.79
- Normalized BRET probe signal (MAT2A [1]; uM 0.82, Time (h) 5): 55.09 and 56.94 and 59.00
- normalized BRET signal (Figure S3D) (MAT2A [1]; uM 1.30, Time 0 min): 100.00
- normalized BRET signal (Figure S3D) (MAT2A [1]; uM 1.30, Time 15 min): 100.00
- normalized BRET signal (Figure S3D) (MAT2A [1]; uM 1.30, Time 30 min): 100.00
- normalized BRET signal (Figure S3D) (MAT2A [1]; uM 1.30, Time 45 min): 100.00
- normalized BRET signal (Figure S3D) (MAT2A [1]; uM 1.30, Time 60 min): 100.00
- normalized BRET signal (Figure S3D) (MAT2A [1]; uM 1.30, Time 75 min): 100.00
- normalized BRET signal (Figure S3D) (MAT2A [1]; uM 1.30, Time 90 min): 100.00
- normalized BRET signal (Figure S3D) (MAT2A [1]; uM 1.30, Time 120 min): 100.00
- Normalized BRET probe signal (MAT2A [1]; uM 1.30, Time (h) 3): 81.83 and 81.36 and 78.63
- Normalized BRET probe signal (MAT2A [1]; uM 1.30, Time (h) 4): 64.66 and 66.78 and 66.04
- Normalized BRET probe signal (MAT2A [1]; uM 1.30, Time (h) 6): 52.27 and 54.37 and 54.09
- normalized BRET signal (Figure S3D) (MAT2A [1]; uM 1.30, Time […]): 100.00
- normalized BRET signal (Figure S3D) (MAT2A [1]; uM -0.13, Time 0 min): 102.61
- normalized BRET signal (Figure S3D) (MAT2A [1]; uM -0.13, Time 30 min): 99.28
- normalized BRET signal (Figure S3D) (MAT2A [1]; uM -0.13, Time 45 min): 99.89 and 99.35 and 98.26
- normalized BRET signal (Figure S3D) (MAT2A [1]; uM -0.13, Time 60 min): 99.27 and 98.76 and 97.87
- normalized BRET signal (Figure S3D) (MAT2A [1]; uM -0.13, Time 75 min): 99.29 and 98.14 and 96.57
- normalized BRET signal (Figure S3D) (MAT2A [1]; uM -0.13, Time 90 min): 99.41 and 97.78 and 96.89
- normalized BRET signal (Figure S3D) (MAT2A [1]; uM -0.13, Time 120 min): 97.11 and 97.69
- Normalized BRET probe signal (MAT2A [1]; uM -1.56, Time (h) 2): 86.27 and 89.51 and 86.94
- Normalized BRET probe signal (MAT2A [1]; uM -1.56, Time (h) 3): 78.52 and 78.24 and 76.36
- Normalized BRET probe signal (MAT2A [1]; uM -1.56, Time (h) 5): 56.30 and 59.42 and 61.19
- Normalized BRET probe signal (MAT2A [1]; uM -1.56, Time (h) 6): 57.39 and 58.36 and 56.05
- Normalized BRET probe signal (MAT2A [1]; uM -2.04, Time (h) 2): 91.78 and 93.83 and 92.35
- Normalized BRET probe signal (MAT2A [1]; uM -2.04, Time (h) 3): 84.09 and 82.20 and 80.64
- Normalized BRET probe signal (MAT2A [1]; uM -2.04, Time (h) 4): 71.87 and 73.84 and 72.51
- Normalized BRET probe signal (MAT2A [1]; uM -2.04, Time (h) 5): 61.86 and 65.39 and 67.66
- Normalized BRET probe signal (MAT2A [1]; uM -2.04, Time (h) 6): 67.16 and 64.98 and 63.98
- Normalized BRET probe signal (MAT2A [1]; uM -2.52, Time (h) 2): 97.92 and 101.07 and 97.78
- Normalized BRET probe signal (MAT2A [1]; uM -2.52, Time (h) 3): 92.42 and 90.78 and 89.69
- Normalized BRET probe signal (MAT2A [1]; uM -2.52, Time (h) 4): 81.28 and 83.71 and 82.94
- Normalized BRET probe signal (MAT2A [1]; uM -2.52, Time (h) 5): 74.64 and 76.80 and 79.27
- Normalized BRET probe signal (MAT2A [1]; uM -2.52, Time (h) 6): 75.70 and 75.54 and 75.07
- Normalized BRET probe signal (MAT2A [1]; uM -2.99, Time (h) 2): 99.19 and 102.22 and 99.77
- Normalized BRET probe signal (MAT2A [1]; uM -2.99, Time (h) 3): 95.84 and 93.35 and 94.20
- Normalized BRET probe signal (MAT2A [1]; uM -2.99, Time (h) 4): 94.50 and 92.51 and 93.76
- Normalized BRET probe signal (MAT2A [1]; uM -2.99, Time (h) 5): 87.56 and 91.04 and 95.19
- Normalized BRET probe signal (MAT2A [1]; uM -2.99, Time (h) 6): 89.25 and 91.90 and 87.75
- Normalized BRET probe signal (MAT2A [1]; uM -3.47, Time (h) 2): 98.78 and 102.46 and 100.43
- Normalized BRET probe signal (MAT2A [1]; uM -3.47, Time (h) 3): 98.17 and 97.18 and 96.26
- Normalized BRET probe signal (MAT2A [1]; uM -3.47, Time (h) 4): 96.70 and 95.88 and 97.43
- Normalized BRET probe signal (MAT2A [1]; uM -3.47, Time (h) 5): 93.94 and 96.00 and 96.68
- Normalized BRET probe signal (MAT2A [1]; uM -3.47, Time (h) 6): 97.50 and 96.53 and 90.92
- Time to plateau of BRET inhibition (MAT2A [1]; live cells, pre-equilibrated CBH-002, 37 °C): ~ 5 h
- Effect on CBH-002 binding at room temperature (MAT2A [1]; room temperature, 2-h interval): did not impact CBH-002 binding
- Normalized BRET probe signal (MAT2A [2]; uM 0.82, Time (h) 6): 54.59 and 55.03 and 49.39
- Normalized BRET probe signal (MAT2A [2]; uM 1.30, Time (h) 2): 83.43 and 85.48 and 85.77
- Normalized BRET probe signal (MAT2A [2]; uM 1.30, Time (h) 5): 54.62 and 56.32 and 57.46
- Normalized BRET probe signal (MAT2A [2]; uM -1.56, Time (h) 4): 64.62 and 64.77 and 65.94

Compound: CC(=O)N1CCC(Nc2cc(C(=O)NC[C@H](O)CN3CCc4ccccc4C3)ncn2)CC1 [GSK3326595]
- IC50 (PRMT5:MEP50): 6.2 nM

Compound: O=C(NC[C@H](O)CN1CCc2ccccc2C1)c1cc(NC2COC2)ncn1 [EPZ015666]
- Schild slope ([3]; Global Gaddum/Schild EC50 shift fit, MTA titration, HEK293): 1.3 (1.15 - 1.47)
- Hill slope ([3]; [MTA] 0 μM, HEK293): 0.81
- Hill slope ([3]; [MTA] 11.11 μM, HEK293): 0.77
- Hill slope ([3]; [MTA] 100 μM, HEK293): 0.72
- Hill slope ([3]; [MTA] 300 μM, HEK293): 0.87
- Hill slope (Global/Schild fit) ([3]; constant across [MTA], constrained to 1 for PF06939999 and GSK3326595): 0.75 (0.73 - 0.78)
- IC50 (Z-138 cells): 62 nM
